Reference: PubChem BioAssay AID179 (DTP/NCI, 2004)
Activity calls are given as the source filed them.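 Rule for the calls: active = compounds giving half or more protection of infected cells from virus-caused growth loss, again on retest; inactive = the rest.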 Where a SMILES comes first, the peptide text is derived from it. [ ]: non-standard residue; d: D form. The star is where a group is joined. ξ: configuration not given here. X17 = O=C(OCc1ccccc1)[C@@H]1CCC[C@H]1N*; Fmoc = O=C(OCC1c2ccccc2-c2ccccc21)*; ξW = NC(Cc1c[nH]c2ccccc12)C(=O)O; ξF = NC(Cc1ccccc1)C(=O)O; Boc = CC(C)(C)OC(=O)*; ξK = NCCCCC(N)C(=O)O; ξT = CC(O)C(N)C(=O)O; tBu = CC(C)(C)*

Test system: CEM cells HIV-1 protection, formazan growth assay
Assay: NCI AIDS Antiviral Assay
Settings: for IC50: measured here: growth of uninfected CEM cells
Procedure, shortened: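 Screen of anti-HIV-1 activity in human CEM cells using a formazan-based growth measurement at five drug concentrations. Hits with 50% or greater protection were repeated, and confirmation required reproducible complete protection.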

Structure (SMILES)	EC50 [µM]	IC50 [µM]	outcome
COc1cccc(N2C(=O)C3c4[nH]c5ccccc5c4C4c5ccccc5CCC4C3C2=O)c1 (configuration not stated)	> 100	> 100	–
CCOC(=O)C1SC(=Nc2ccc(Cl)cc2Cl)N=C1C (configuration not stated)	–	–	inactive
O=C(O)C1COCN1C(=O)c1cc2ccccc2cc1SSc1cc2ccccc2cc1C(=O)N1COCC1C(=O)O (configuration not stated)	> 200	93.3	–
Cc1cc(C)nc(NS(=O)(=O)c2ccc(NC(=O)c3cccc4c(Nc5ccc(S(=O)(=O)Nc6cc(C)on6)cc5)c5ccccc5nc34)cc2)n1	> 35.5	> 35.5	–
COc1ccc(C2(OC)Oc3ccccc3C(=O)C2(O)OC)cc1OC (configuration not stated)	> 200	11.5	–
COS(=O)c1cc(Cl)cc(Cl)c1OC(=O)CSSCC(=O)Oc1c(Cl)cc(Cl)cc1S(=O)OC (configuration not stated)	–	–	inactive
Oc1c2c(c(O)c3ccccc13)C1(N=N2)c2ccccc2Oc2ccccc21	–	–	inactive
Cc1cnc(SCCN(C)C)nc1-c1cccs1	> 891	22.4	–
C/C(=C\C(=O)Nc1ccc2n[nH]nc2c1)Nc1ccc2n[nH]nc2c1	–	–	inactive
Cc1ccc(NC(=S)NNC(=O)c2cc(-c3ccccc3)nc3ccccc23)cc1C	> 200	12.6	–
COC(=O)c1ccccc1CC1Cc2cc3c(cc2C1=O)CCC3 (configuration not stated)	> 200	7.59	–
COC(=O)C1=C(C(=O)OC)C2(C)CCC(=O)C1O2 (configuration not stated)	> 200	> 200	–
O=c1cc(NNc2ccccc2F)[nH]c(=O)[nH]1	> 200	1.78	–
Cc1cc(=O)n2c(nc3ccccc32)s1	> 200	> 200	–
CN1C(=O)c2ccccc2Cc2c(Cl)ncnc21	> 200	34.7	–
CCOP(=O)(OCC)/C(C#N)=C/c1cccc(OC)c1	> 229	> 229	–
CCOc1ccc(C(C2=C(O)c3ccccc3C(=O)C2=O)C2=C(O)c3ccccc3C(=O)C2=O)cc1OC	> 200	29.5	–
O=C(Nc1ccc(/C=C/c2ccc(NC(=O)c3ccc4cccnc4c3O)cc2S(=O)(=O)O)c(S(=O)(=O)O)c1)c1ccc2cccnc2c1O	> 100	60.3	–
COc1ccc(NC(=O)/C(Cc2cc(=O)oc3cc(O)ccc23)=N\NC(C)(C)C)c(OC)c1	> 30.2	> 30.2	–
O=[N+]([O-])c1ccc(-c2nc3c(o2)CCC3)cc1	> 200	195	–

Structure (SMILES)	EC50 [µM]	IC50 [µM]	outcome
O=C1NC(N2CCOCC2)=N/C1=C\c1ccc(Cl)cc1	> 200	> 200	–
CN(C)c1ccc(/C=N/n2c(-c3ccccc3)nc3ccccc3c2=O)cc1	> 200	33.9	–
CC(=O)OCC1OC(n2c(-c3ccc(C)cc3)cc(-c3ccccc3)c(C#N)c2=S)C(OC(C)=O)C(OC(C)=O)C1OC(C)=O (configuration not stated)	> 200	67.6	–
Cn1c2c(c3ccccc31)C1CCCCC1C1C(=O)NC(=O)C21 (configuration not stated)	–	–	inactive
C=CCC(C)C12CCNC(Cc3ccc(O)cc31)C2C (configuration not stated)	> 200	> 200	–
CC(=O)NNc1nc(C)c(C(=O)/C=C/c2ccc(Cl)c(Cl)c2)s1	> 51.3	> 51.3	–
NC1=NN(c2ccccc2)C(=O)C1C(=O)C(=O)Nc1cccc(C(F)(F)F)c1 (configuration not stated)	–	–	inactive
COc1ccc(/C=C/C(=O)c2ccc(OC(=O)/C=C/c3ccccc3)cc2)cc1	> 200	9.12	–
COC(C/C(=C/CO[Si](C(C)C)(C(C)C)C(C)C)C(=O)Nc1ccccc1I)OC	> 200	40.7	–
O=C(O)[C@@H]1CSC(c2ccccc2Cl)N1 (some centres not stated)	> 200	141	–
CC(OC(C)(C)C)C(NC(=O)C(CCCCNC(=O)OC(C)(C)C)NC(=O)C(Cc1c[nH]c2ccccc12)NC(=O)C(Cc1ccccc1)NC(=O)OCC1c2ccccc2-c2ccccc21)C(=O)NC(Cc1ccccc1)C(=O)N[C@@H]1CCC[C@H]1C(=O)OCc1ccccc1 (some centres not stated) (Fmoc-[ξF][ξW][ξK](Boc)[ξT](tBu)[ξF]-X17)	–	–	inactive
CS(=O)(=O)Sc1ccccc1C(=O)O	> 1070	> 1070	–
COC(=O)C1(Cc2ccccc2)Cc2cc3c(cc2C1)CCC3	> 200	60.3	–
CN(C)/N=C(/c1nc2ccc([N+](=O)[O-])cc2[nH]c1=O)C(O)c1ccco1 (configuration not stated)	> 263	191	–
CCOC(=O)CC/C(=N/Nc1ccc(Cl)cc1[N+](=O)[O-])C(=O)OCC	> 200	> 200	–
CC(C)(C)c1cc2c(c(C(C)(C)C)c1)OC(C1Nc3cc(C(C)(C)C)cc(C(C)(C)C)c3O1)N2 (configuration not stated)	> 100	21.4	–
CC(C)C(Sc1nc(-c2ccccc2)c(-c2ccccc2)[nH]1)C(=O)N/N=C/c1ccc([N+](=O)[O-])cc1 (configuration not stated)	> 14.5	> 14.5	–
Cc1ccc(C(=O)Nc2ccc(CP(=O)(O)O)cc2CP(=O)(O)O)cc1NC(=O)c1cccc(NC(=O)Nc2cccc(C(=O)Nc3cc(C(=O)Nc4ccc(CP(=O)(O)O)cc4CP(=O)(O)O)ccc3C)c2)c1	> 100	> 100	–
CC(C)OP(=S)(NC(=S)c1ccccc1)OC(C)C	> 741	178	–
CC1=C(C#N)C(C#N)(C#N)C(NN(C)C)C1 (configuration not stated)	> 200	3.8	–

Structure (SMILES)	EC50 [µM]	IC50 [µM]	outcome
O=C1OC2(c3ccc(O)cc3Oc3cc(O)ccc32)c2ccccc21	> 50.1	> 50.1	–
NCCN1C(=O)C2C3c4ccccc4C(c4ccccc43)C2C1=O (configuration not stated)	–	–	inactive
COC1OC2COC(C)(C)OC2C2OC(C)(C)OC12 (configuration not stated)	> 200	182	–
CN(CCO)c1nc(N)cc(=O)[nH]1	> 1350	> 1350	–
O=[N+]([O-])c1cccc2nc3ccccc3c(NCCC[N+]3([O-])CCCCC3)c12	> 0.2	0.126	–
Cc1c2ccccc2nc(CSc2ccccc2)[n+]1[O-]	9.55	178	–
COC1/C=C/OC2(C)Oc3c(C)c(O)c4c(O)c(c(/C=N/n5c(=O)[nH]c6ccccc6c5=O)c(O)c4c3C2=O)NC(=O)/C(C)=C\C=C\C(C)C(O)C(C)C(O)C(C)C(OC(C)=O)C1C (configuration not stated)	> 200	29.5	–
CC(C)OC(=S)SSC(=S)OC(C)C	> 200	6.92	–
Cc1ccc(S(=O)(=O)c2ccc(N)cc2)cc1	–	–	inactive
Cc1cccc(C2OC(=O)c3c2ccc2ccccc32)c1 (configuration not stated)	–	–	inactive
CC1C(C#N)(C#N)C(C#N)=C(N)C1(C)[N+](=O)[O-] (configuration not stated)	> 200	27.5	–
Cc1nc2ccccc2c(=O)n1/N=C(\N=Nc1cc(Cl)ccc1Cl)c1ccc(N(C)C)cc1	–	–	inactive
CS(=O)(=O)OCC1CN(S(C)(=O)=O)c2cc(O)ccc21 (configuration not stated)	> 200	1.51	–
CCN(CC)Cc1c(/C=C\c2cc(OC)c(OC)c(OC)c2)ccc(OC)c1O	> 200	1.1	–
O=[N+]([O-])c1cccc2nc3ccccc3c(NCCCCCNc3c4ccccc4nc4cccc([N+](=O)[O-])c34)c12	0.0195	0.0832	–
CC(=O)OC1(C)C2c3ccccc3C(c3ccccc32)C1(C)C (configuration not stated)	> 85.1	> 85.1	–
COc1ccc2[nH]c3c4c(cc(-c5ccccc5)c3c2c1)C(=O)N(c1ccccc1)C4=O	> 9.12	> 9.12	–
NC(N)NCCCc1cn2c(n1)C1CCCN1C(=O)C2Cc1ccccc1 (configuration not stated)	> 676	> 676	–
CC(=O)NC(CCCCNC(=O)OCc1ccccc1)C(=O)O (configuration not stated)	> 776	> 776	–
